Source: ChEMBL document CHEMBL1201862, “PubChem BioAssay data set” (2004)
Activity calls are given as the source filed them.

Experiments:
[1] = inhibition of ADAM10 peptide cleavage – biochemical, FRET peptide substrate, recombinant human ADAM10, selectivity assay for ADAM17 exosite inhibitor project, dose response (AID 743259);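 also: ADAM10 enzyme cleaving a FRET peptide substrate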
[2] = target: Disintegrin and metalloproteinase domain-containing protein 17 (Homo sapiens, UniProt P78536); assay: exosite inhibitors of ADAM17, dose response, biochemical (AID 743260)
Disintegrin and metalloproteinase domain-containing protein 17, sequence (P78536 whole entry, the tested form may be a part): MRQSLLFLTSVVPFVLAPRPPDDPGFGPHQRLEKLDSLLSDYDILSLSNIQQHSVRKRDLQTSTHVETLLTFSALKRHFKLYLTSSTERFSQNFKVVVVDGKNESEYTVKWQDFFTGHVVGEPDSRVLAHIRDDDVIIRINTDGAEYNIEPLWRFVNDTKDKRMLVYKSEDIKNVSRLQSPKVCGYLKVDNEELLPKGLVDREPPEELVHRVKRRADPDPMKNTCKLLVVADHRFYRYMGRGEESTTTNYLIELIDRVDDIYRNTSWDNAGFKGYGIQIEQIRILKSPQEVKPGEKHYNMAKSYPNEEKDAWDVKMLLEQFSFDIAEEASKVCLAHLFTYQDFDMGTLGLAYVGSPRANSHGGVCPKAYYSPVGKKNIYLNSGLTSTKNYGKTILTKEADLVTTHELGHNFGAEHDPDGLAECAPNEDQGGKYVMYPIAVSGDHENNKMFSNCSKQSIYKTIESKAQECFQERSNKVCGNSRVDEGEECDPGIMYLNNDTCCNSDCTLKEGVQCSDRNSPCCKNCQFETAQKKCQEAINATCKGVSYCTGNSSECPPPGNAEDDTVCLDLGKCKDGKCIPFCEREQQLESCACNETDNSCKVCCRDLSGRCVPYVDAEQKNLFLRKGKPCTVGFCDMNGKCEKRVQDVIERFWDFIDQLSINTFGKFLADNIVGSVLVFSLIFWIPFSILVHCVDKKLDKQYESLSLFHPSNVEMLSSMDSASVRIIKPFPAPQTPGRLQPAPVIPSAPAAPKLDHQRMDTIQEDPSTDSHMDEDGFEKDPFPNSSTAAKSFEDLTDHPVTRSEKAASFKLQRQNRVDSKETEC

Albumin = Albumin (Bos taurus, UniProt P02769); assay: Counterscreen for inhibitors of T-cell receptor (TCR)-CD3 interaction: Fluorescence-based biochemical high throughput dose response assay to identify inhibitors of T-cell receptor (TCR)-CD3 interaction using a TAMRA-labeled BSA probe.; type: functional
Albumin, sequence (P02769 whole entry, the tested form may be a part): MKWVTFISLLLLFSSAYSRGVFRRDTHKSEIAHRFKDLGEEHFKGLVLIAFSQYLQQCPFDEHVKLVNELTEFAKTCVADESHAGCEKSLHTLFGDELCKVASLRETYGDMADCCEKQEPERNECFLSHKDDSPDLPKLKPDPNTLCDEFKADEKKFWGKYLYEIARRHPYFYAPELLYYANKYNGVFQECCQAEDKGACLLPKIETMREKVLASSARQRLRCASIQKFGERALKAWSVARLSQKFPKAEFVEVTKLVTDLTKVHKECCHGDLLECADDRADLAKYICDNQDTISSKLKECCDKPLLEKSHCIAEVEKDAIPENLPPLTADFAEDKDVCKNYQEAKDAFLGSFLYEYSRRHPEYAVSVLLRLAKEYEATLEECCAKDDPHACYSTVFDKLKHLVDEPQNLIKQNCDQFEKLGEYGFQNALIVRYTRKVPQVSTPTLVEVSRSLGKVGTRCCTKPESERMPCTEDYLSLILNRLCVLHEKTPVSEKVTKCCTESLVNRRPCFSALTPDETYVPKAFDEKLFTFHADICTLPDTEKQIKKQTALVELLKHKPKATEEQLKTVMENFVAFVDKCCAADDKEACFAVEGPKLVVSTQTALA

[3] = target: T1, RNA-binding protein pos-1 (Caenorhabditis elegans, UniProt G5EF15); assay: disruptors of C. elegans POS-1 RNA interaction – biochemical, fluorescence polarization, dose response (AID 1964);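 also: purified POS-1 fused to maltose binding protein made in E. coli; potency of compounds blocking POS-1 binding to fluorescent RNA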
T1 sequence (G5EF15 whole entry): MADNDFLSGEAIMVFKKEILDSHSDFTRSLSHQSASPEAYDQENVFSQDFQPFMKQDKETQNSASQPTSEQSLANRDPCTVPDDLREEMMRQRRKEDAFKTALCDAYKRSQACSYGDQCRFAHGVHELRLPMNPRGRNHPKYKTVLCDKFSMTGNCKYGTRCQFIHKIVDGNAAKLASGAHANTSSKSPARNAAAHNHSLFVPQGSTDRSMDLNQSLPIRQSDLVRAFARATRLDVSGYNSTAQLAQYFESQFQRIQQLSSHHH

[4] = target: T2, Zinc finger protein mex-5 (Caenorhabditis elegans, UniProt Q9XUB2); assay: potency of MEX-5 RNA-binding blockers – biochemical, C. elegans, fluorescence polarization, dose response (AID 1960)
T2 sequence (Q9XUB2 whole entry): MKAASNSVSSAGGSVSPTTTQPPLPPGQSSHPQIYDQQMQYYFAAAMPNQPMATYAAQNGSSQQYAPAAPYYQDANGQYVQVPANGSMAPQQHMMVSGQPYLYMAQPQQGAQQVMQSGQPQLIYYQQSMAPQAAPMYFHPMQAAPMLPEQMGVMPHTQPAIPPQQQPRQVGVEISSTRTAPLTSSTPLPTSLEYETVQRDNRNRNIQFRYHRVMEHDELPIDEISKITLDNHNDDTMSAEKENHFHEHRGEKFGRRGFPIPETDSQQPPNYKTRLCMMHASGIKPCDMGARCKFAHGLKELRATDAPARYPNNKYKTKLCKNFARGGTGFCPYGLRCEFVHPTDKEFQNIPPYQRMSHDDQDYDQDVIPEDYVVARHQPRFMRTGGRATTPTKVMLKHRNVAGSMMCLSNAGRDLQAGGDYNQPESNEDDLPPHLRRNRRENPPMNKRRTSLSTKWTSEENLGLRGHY

[5] = alpha-synuclein stem-loop luciferase translation blockers – H4 neuroglioma cells, luminescence, confirmation (AID 1988); type: functional, cell-based
[6] = Luminescence Cell-Based Dose Response HTS to Identify Inhibitors of 5'UTR Stem-Loop Driven Prion Protein mRNA Translation in H4 Neuroglioblastoma Cells. [Related pubchem assays: 1827 (Project Summary), 1813 (Primary HTS)]; type: functional
[7] = luciferase reporter signal suppression in cells – H4 neuroglioma cells, luminescence, dose response (AID 1990); type: functional, cell-based
cells [8] = type: functional, cell-based
[9] = target: T3, Nuclear receptor subfamily 0 group B member 1 (Homo sapiens, UniProt P51843); type: functional, cell-based;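 also: HEK293T cells transfected with SF-1 and DAX-1 plus StAR promoter luciferase reporter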
T3 sequence (P51843 whole entry): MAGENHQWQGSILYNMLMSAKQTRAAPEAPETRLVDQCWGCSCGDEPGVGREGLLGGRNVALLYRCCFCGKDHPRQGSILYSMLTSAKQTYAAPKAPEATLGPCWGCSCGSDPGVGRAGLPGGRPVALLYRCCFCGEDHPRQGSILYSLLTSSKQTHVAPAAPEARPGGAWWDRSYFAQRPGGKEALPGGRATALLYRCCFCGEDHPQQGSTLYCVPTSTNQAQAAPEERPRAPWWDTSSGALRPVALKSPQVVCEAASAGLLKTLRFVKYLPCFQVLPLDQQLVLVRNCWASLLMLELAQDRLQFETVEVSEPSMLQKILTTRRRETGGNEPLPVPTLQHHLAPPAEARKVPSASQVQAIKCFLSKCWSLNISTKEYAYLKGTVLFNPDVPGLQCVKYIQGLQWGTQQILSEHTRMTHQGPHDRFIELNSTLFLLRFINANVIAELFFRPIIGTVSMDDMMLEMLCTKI

[10] = target: T4, DNA repair protein RAD52 homolog (Homo sapiens, UniProt P43351); type: functional, biochemical
T4 sequence (P43351 whole entry): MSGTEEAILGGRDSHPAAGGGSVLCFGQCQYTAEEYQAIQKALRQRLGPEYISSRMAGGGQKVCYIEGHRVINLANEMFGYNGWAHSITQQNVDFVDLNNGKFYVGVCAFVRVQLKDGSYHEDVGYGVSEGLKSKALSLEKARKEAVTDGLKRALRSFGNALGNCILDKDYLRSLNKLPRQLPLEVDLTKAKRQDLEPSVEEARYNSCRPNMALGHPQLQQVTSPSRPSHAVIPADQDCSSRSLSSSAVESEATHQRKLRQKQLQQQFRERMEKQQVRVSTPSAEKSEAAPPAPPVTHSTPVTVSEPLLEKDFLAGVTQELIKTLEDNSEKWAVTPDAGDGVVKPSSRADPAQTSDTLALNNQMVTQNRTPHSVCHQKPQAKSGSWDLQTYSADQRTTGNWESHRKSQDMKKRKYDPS

[11] = target: FAD-linked sulfhydryl oxidase ALR (Homo sapiens, UniProt P55789); assay: ALR-catalysed DTT oxidation blockers – biochemical, H2O2 detection, luminescence, cherry-pick, dose response (AID 493248)
[12] = Luminescence-based cell-based high throughput dose response assay to identify activators of the DAF-12 from the parasite S. stercoralis (ssDAF-12).; type: functional
Paired box protein Pax-8 = Paired box protein Pax-8 (Homo sapiens, UniProt Q06710); assay: PAX8 transcriptional activity inhibition in RMG-I – RMG-I cells, luciferase, cherry-pick, dose response (AID 687027); type: functional, cell-based;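 also: luciferase reporter driven by Pax8 target thyroperoxidase promoter measured by SteadyGlo luminescence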
Paired box protein Pax-8, sequence (Q06710 whole entry): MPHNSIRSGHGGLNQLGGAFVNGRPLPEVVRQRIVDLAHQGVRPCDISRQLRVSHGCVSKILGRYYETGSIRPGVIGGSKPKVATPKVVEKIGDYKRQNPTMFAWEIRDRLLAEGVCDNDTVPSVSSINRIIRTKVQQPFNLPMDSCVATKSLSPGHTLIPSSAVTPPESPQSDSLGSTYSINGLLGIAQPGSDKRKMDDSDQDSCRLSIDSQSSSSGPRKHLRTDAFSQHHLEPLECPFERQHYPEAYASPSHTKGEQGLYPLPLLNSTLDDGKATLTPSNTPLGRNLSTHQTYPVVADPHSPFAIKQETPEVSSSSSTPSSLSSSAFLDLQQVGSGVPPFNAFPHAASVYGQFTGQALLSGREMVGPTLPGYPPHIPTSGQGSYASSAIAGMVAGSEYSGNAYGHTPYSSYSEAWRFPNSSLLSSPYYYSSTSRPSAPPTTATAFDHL

H9c2 = assay: cells; type: functional, cell-based; settings: Rattus norvegicus, H9c2, Myocardium
[13] = general cell-killing toxicity readout – plate reader, dry powder samples, cytotoxicity control for PAX8 inhibitor project, dose response (AID 743021); type: functional, cell-based
[14] = target: T5, Microphthalmia-associated transcription factor (Homo sapiens, UniProt O75030); assay: reducers of TRPM1 reporter luminescence, concentration series – cell-based, SK-MEL-5, cherry-picked, set 3, MITF inhibitor project, dose response (AID 493073); type: functional;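 also: SK-MEL-5 melanoma cells with luciferase driven by the MITF target TRPM1 promoter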
T5 sequence (O75030 whole entry): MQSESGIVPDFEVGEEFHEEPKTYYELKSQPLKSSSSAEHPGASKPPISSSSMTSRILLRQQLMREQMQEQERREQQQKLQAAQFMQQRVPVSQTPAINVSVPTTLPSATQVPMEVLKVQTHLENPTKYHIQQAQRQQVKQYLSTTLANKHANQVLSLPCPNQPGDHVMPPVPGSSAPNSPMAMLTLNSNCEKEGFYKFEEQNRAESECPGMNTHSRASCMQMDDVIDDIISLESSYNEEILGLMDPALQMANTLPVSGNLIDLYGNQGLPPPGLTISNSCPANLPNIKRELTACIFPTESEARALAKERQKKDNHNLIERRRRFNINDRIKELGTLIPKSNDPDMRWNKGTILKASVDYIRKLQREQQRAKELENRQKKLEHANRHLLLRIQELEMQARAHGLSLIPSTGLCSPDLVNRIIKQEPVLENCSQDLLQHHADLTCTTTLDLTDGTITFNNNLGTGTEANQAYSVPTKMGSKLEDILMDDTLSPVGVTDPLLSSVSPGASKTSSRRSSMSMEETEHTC

[15] = HEK-293T viability loss after treatment – luminescence, T-cell screen hits, cytotoxicity control for TCR NF-kB inhibitor project, dose response (AID 489026); type: functional, cell-based;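 also: cells exposed to compound about 14 hours before the viability readout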
[16] = THP-1 cell cytotoxicity, dose response, cytotoxicity control for non-replicating M. tuberculosis project (AID 489025); type: functional
cells [17] = type: functional
[18] = target: SWI/SNF-related matrix-associated actin-dependent regulator of chromatin subfamily A member 2 (Homo sapiens, UniProt P51531); assay: Luminescence-based cell-based high throughput dose response assay to identify activators of the function of SWI/SNF related, matrix associated, actin dependent regulator of chromatin, subfamily a, member 2 (SMARCA2, BRM).; type: functional
SWI/SNF-related matrix-associated actin-dependent regulator of chromatin subfamily A member 2, sequence (P51531 whole entry): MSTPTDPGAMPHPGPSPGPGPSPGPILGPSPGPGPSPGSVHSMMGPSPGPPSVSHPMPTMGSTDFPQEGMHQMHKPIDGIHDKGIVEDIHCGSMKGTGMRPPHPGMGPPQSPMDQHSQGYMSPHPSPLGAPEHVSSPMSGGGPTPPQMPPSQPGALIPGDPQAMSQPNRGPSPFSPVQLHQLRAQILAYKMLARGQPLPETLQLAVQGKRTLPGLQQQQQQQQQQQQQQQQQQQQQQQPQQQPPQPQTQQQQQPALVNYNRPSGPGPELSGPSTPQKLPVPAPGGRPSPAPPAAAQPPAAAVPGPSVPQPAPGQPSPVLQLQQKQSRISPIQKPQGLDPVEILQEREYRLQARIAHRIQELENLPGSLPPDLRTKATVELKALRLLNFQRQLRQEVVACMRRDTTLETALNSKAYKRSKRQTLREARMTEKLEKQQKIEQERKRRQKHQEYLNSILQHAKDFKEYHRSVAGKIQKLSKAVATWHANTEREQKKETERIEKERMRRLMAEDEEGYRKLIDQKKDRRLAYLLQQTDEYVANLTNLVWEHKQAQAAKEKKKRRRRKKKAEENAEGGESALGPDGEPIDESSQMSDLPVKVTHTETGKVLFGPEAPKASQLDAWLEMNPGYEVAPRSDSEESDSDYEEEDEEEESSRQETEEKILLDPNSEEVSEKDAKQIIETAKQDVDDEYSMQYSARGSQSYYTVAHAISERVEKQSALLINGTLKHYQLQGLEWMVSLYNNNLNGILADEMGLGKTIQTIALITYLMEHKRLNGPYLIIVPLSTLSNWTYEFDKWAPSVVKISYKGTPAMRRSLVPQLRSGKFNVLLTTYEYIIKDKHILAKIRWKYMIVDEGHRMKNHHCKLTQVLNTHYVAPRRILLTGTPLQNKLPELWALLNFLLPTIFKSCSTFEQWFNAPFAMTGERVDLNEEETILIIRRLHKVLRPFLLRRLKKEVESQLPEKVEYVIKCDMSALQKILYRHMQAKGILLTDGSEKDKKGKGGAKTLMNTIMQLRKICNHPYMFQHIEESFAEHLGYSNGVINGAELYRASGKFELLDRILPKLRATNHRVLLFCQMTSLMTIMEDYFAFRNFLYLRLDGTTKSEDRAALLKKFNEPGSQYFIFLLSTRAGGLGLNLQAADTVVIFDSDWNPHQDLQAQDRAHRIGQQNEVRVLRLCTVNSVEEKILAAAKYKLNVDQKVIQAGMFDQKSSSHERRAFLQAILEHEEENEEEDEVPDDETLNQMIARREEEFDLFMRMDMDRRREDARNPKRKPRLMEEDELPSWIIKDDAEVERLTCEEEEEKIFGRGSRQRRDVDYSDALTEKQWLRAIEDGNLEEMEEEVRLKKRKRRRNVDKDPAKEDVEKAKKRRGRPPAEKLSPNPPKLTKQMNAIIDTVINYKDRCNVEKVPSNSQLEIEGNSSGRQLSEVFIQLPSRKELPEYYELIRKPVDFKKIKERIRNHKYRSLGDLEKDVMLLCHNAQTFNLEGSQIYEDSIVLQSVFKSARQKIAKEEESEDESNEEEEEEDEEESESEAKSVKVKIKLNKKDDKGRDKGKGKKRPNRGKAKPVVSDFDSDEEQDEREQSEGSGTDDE

[19] = Vero E6 cell cytotoxicity, dose response, cytotoxicity control for non-replicating M. tuberculosis project, secondary assay (AID 492998); type: functional, VeroE6; settings: Vero C1008
[20] = Counterscreen for activators of the function of SWI/SNF related, matrix associated, actin dependent regulator of chromatin, subfamily a, member 2 (SMARCA2, BRM): Luminescence-based cell-based high throughput dose response assay to identify non-selective compounds using the VP16 reporter assay.; type: functional
[21] = microbe, parasite or virus in culture; type: functional; settings: Mycobacterium tuberculosis
[22] = target: DNA (cytosine-5)-methyltransferase 1 (Homo sapiens, UniProt P26358); assay: inhibition of DNA methylation by DNMT1 – biochemical, fluorescent molecular beacon, confirmation (AID 602386); type: functional
DNA (cytosine-5)-methyltransferase 1, sequence (P26358 whole entry): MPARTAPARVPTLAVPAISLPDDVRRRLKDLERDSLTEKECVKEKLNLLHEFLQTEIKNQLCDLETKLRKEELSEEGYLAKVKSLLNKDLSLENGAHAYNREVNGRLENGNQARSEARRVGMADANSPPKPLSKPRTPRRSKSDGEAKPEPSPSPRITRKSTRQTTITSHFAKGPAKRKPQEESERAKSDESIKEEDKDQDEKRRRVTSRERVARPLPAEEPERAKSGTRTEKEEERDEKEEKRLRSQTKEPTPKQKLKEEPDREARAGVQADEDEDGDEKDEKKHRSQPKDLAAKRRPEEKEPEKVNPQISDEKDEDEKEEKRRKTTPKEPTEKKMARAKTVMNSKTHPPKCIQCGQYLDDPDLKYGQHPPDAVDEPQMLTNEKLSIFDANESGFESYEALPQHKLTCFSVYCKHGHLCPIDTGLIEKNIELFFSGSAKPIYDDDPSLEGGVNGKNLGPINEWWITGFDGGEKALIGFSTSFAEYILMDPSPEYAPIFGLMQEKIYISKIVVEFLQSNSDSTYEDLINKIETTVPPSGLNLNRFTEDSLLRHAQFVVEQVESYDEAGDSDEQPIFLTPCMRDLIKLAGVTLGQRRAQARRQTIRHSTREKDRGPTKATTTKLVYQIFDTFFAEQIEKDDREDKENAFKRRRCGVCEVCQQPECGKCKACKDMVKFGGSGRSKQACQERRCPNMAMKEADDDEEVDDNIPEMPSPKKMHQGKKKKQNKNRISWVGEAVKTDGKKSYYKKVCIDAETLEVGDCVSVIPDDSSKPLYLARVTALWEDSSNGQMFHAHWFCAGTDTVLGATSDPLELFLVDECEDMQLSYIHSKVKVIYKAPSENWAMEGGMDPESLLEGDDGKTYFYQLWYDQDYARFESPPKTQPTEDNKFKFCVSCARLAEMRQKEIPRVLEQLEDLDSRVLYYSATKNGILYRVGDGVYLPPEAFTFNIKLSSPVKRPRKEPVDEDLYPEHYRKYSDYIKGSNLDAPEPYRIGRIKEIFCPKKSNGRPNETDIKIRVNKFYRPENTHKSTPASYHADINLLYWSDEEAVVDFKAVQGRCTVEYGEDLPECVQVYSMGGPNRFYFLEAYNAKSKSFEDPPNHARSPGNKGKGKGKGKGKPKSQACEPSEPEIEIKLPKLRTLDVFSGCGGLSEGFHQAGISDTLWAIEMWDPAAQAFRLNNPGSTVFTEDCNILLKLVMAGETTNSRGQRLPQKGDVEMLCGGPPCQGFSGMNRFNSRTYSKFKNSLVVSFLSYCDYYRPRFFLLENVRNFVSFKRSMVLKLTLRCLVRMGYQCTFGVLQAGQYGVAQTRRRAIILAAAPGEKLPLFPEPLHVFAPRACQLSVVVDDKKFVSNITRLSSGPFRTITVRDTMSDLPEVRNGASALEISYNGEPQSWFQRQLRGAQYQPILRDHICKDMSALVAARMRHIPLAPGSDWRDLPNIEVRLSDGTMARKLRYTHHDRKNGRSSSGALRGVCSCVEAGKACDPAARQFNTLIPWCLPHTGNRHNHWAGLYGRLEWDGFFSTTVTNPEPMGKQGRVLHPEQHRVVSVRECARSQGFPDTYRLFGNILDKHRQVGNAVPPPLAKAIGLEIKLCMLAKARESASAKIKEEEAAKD

[23] = target: T6, DNA repair and recombination protein RAD54-like (Homo sapiens, UniProt Q92698); assay: RAD54 Holliday junction migration blockers – biochemical, fluorescence, cherry-picked samples, dose series, confirmation (AID 651657); type: functional
T6 sequence (Q92698 whole entry): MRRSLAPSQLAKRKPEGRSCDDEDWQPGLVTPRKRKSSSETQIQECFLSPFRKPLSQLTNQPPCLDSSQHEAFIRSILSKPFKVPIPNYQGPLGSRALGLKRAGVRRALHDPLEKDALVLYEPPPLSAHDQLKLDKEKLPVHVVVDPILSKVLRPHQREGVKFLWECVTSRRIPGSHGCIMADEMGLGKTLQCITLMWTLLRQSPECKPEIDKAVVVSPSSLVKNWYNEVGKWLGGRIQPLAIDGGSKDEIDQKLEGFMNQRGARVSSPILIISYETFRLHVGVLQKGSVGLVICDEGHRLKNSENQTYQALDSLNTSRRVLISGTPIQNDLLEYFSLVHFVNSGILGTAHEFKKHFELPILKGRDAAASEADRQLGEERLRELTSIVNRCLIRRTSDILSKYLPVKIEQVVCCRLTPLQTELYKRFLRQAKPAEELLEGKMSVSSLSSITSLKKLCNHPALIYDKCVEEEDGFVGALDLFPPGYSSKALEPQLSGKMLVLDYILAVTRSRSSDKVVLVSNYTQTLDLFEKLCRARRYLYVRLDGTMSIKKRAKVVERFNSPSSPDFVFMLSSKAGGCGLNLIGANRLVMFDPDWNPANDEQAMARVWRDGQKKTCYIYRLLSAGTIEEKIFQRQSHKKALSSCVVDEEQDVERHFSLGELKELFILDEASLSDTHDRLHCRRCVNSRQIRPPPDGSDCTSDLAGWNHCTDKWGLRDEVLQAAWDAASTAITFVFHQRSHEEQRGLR

## O=C1c2cccc(OCC(=O)N3CCCc4ccccc43)c2CCN1Cc1ccc(Br)cc1
[1]
  IC50: > 69.5 µM (inactive)
[2]
  IC50: > 69.5 µM (inactive)

## O=C(NNC(=O)c1cc(Cl)ccc1O)c1cccc(S(=O)(=O)N2CCOCC2)c1
Albumin
  IC50: > 94.1 µM (inactive)
[3]
  EC50: 18.7 µM (inconclusive)
[4]
  EC50: 11.6 µM (active)

## O=C(NC(=S)Nc1ccc2c(c1)OCCO2)c1cccc2ccccc12
[1]
  IC50: > 69.5 µM (inactive)
[2]
  IC50: > 69.5 µM (inactive)

## CCOc1ccc(N(CC(=O)Nc2ccccc2OCC)S(=O)(=O)c2c(C)noc2C)cc1
[5]
  EC50: 0.567 µM (active)
[6]
  EC50: 0.495 µM (active)
[7]
  EC50: 2.32 µM (active)
Cells [8]
  IC50: > 67.5 µM (inactive)
[9]
  IC50: > 67.5 µM (inactive)

## NCCCNC(=S)NCCCN(Cc1ccc(Cl)cc1)c1ccc(Br)cn1
[10]
  AC50: 20.2 µM (active)

## Cc1cccc(N2C(=O)/C(=C\NNC(=O)c3ccccc3Cl)c3ccccc3C2=O)n1
[11]
  AC50: 9.36 µM (active)
Albumin
  IC50: > 94.1 µM (inactive)

## CC(=O)Nc1sc2c(c1-c1nc3ccccc3s1)CCCN(C(C)C)C2
[12]
  IC50: > 67.5 µM (inactive)

## CCC(c1nnnn1Cc1ccccc1)N1CCC(n2c(O)nc3ccccc32)CC1 (configuration not stated)
Paired box protein Pax-8
  AC50: 3.8 µM (active)
H9c2
  IC50: > 79 µM (inactive)
[13]
  AC50: 41.4 µM (active)

## Cc1ccc(NC(=O)COC(=O)/C(=C/c2cccs2)c2cccs2)cc1S(=O)(=O)N(C)C
[1]
  IC50: > 69.5 µM (inactive)
[2]
  IC50: > 69.5 µM (inactive)

## COc1ccc(COC(=O)c2cc([N+](=O)[O-])ccc2N2CCOCC2)cc1F
[14]
  AC50: 0.023 µM (active)
Paired box protein Pax-8
  AC50: < 0.26 µM (active)
[15]
  IC50: > 80 µM (inactive)
Cells [8]
  IC50: > 67.5 µM (inactive)
[9]
  IC50: > 0.278 µM (active)

## O=C(/C=C\Nc1cccc(F)c1)c1ccc2c(c1)OCO2
[5]
  EC50: 7.2 µM (active)
[6]
  EC50: 7.42 µM (active)
Cells [8]
  IC50: > 67.5 µM (inactive)
[9]
  IC50: > 0.0926 µM (active)

## Cc1ccc(O)c(-c2cc(C(=O)Nc3ccc(S(=O)(=O)Nc4nccc(C)n4)cc3)[nH]n2)c1
Albumin
  IC50: > 94.1 µM (inactive)
[3]
  EC50: 13.1 µM (inconclusive)
[4]
  EC50: 6.59 µM (active)

## CCOc1cccc2sc(N(CCN(C)C)C(=O)c3cc4ccccc4cc3OC)nc12
[10]
  AC50: 12.5 µM (active)

## CN(C)CCOc1nc(-c2ccccc2)nc2c1oc1ccccc12
[16]
  CC50: 34 µM (active)
Cells [17]
  IC50: 10.7 µM (active)
[18]
  EC50: > 10.1 µM (inactive)
[19]
  CC50: > 20 µM (active)
[20]
  EC50: > 91.2 µM (inactive)
[21]
  CC50: 12.5 µM (active)
[22]
  IC50: > 99 µM (inactive)
[23]
  AC50: 4.97 µM (active)
